US12168646B2, “Aryl hydrocarbon receptor agonists and uses thereof” (NEXYS THERAPEUTICS, INC., priority 2022, dated 2024)

What was measured:
[1] = Stability in human feces (azo reduction in feces homogenate); format: in vitro ADME; conditions: pH 6.8, 37° C., under nitrogen
Procedure: Biological Data 2: Stability in Human Feces
Accordingly, selected azo compounds of the invention were exposed to human feces under conditions suitable to promote azo reduction.
The human feces from two donors were homogenized in isotonic phosphate buffered saline (pH 6.8) with a ratio of 1:10 (w/v). The tubes were sealed using sealing film. Test article was dissolved in isotonic phosphate buffer (pH 6.8) to form a working solution of 20 μM (if the solubility allows). An aliquot of working solution (50 μL) was added to the human feces homogenate (50 μL) for each time point (0, 1, 2, 4, 6 and 24 h) in duplicate and placed under nitrogen for about 1 minute in order to exhaust air, and then incubated at 37° C. After incubation at each pre-set time point, 1000 μL acetonitrile containing internal standard w as added to each tube to quench reaction. Samples were vortexed and centrifuged at 3700 rpm for 10 min and the supernatant was transferred for analysis (and diluted where necessary). The concentrations of test article and its metabolite (example 3) in the supernatants were determined using LC-MS/MS method. Sulfasalazine was used as a positive control. All incubations were performed in duplicate.

AhR = biological target: T1, AhR (Homo sapiens, UniProt P35869); experiment: HT29 AhR Reporter Assay (HT29-Lucia AhR cells, QUANTI-Luc luminescence); format: cell-based; conditions: HT29-Lucia AhR cells
T1 construct: HT29-Lucia AhR cells were purchased from Invivogen (cat #ht21-ahr); host or cells: HT29-Lucia AhR cells
T1 sequence (P35869 11-848): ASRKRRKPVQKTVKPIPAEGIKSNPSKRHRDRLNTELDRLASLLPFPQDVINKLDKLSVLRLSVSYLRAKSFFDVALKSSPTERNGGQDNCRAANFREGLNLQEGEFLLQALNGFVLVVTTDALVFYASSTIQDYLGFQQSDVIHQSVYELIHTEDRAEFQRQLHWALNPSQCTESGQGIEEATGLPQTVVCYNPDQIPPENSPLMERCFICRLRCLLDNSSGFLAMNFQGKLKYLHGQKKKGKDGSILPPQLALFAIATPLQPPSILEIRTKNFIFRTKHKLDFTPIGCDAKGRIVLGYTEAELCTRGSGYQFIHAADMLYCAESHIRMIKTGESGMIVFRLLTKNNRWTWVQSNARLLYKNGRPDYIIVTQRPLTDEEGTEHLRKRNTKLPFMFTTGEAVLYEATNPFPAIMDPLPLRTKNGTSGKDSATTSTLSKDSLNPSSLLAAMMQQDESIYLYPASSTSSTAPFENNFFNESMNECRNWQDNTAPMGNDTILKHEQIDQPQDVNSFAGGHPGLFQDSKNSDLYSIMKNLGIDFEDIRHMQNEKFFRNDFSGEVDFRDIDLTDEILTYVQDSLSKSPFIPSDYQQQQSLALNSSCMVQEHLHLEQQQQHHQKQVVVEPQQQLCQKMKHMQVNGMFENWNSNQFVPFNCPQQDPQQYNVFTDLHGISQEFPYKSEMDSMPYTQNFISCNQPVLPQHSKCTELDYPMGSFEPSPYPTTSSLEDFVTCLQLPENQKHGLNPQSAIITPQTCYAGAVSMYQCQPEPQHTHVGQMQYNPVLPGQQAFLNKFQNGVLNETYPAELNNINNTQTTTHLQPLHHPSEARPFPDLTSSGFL
Procedure: Biological Data 1: HT29 AhR Reporter Assay HT29-Lucia AhR cells were purchased from Invivogen (cat #ht21-ahr). […] The cell suspension was removed from growth medium and rinsed gently with pre-warmed PBS (10 mL). Pre-warmed Trypsin (1 mL) was added, and cells were held at 30° C. for about 5 min and then detached by pipette. The dissociated cell clumps were gently pipetted up and down. The cells were resuspended in pre-warmed detection medium (DMEM, 10% FBS (30 min at 56° C.), 100 U/ml penicillin, 100 μg/ml streptomycin, and test article or vehicle) and counted. A cell suspension of ˜500,000 cells/mL in Detection medium was prepared. […] Samples (20 μL/well) were pipetted into a 96-well white (opaque), and QUANTI-Luc™ (50 μL/well) was added. The plate was gently tapped and then read in a luminometer (0.1 s reading time).

In the case of O=C(O)c1cccc(/N=N/c2ccccc2-c2ccnc(Nc3ccc(C(F)(F)F)cc3)n2)c1 [Example 34, (E)-3-((2-(2-((4-(trifluoromethyl)phenyl)amino)pyrimidin-4-yl)phenyl)diazenyl)benzoic acid], the “% of parent remaining after incubation for 6 h” value (shortened to “% of parent remaining”) [1] is reported as 95%.

In the case of Oc1ccc(/N=N/c2ccccc2-c2ccnc(Nc3ccc(C(F)(F)F)cc3)n2)cc1 [Example 33, (E)-4-((2-(2-((4-(trifluoromethyl)phenyl)amino)pyrimidin-4-yl)phenyl)diazenyl)phenol], the “% of parent remaining” value [1] is reported as 59%.

For N[C@H](Cc1cc(/N=N/c2ccccc2-c2ccnc(Nc3ccc(C(F)(F)F)cc3)n2)ccc1O)C(=O)O [Example 49, (R,E)-2-amino-3-(2-hydroxy-5-((2-(2-((4-(trifluoromethyl)phenyl)amino)pyrimidin-4-yl)phenyl)diazenyl)phenyl)propanoic acid], the “% of parent remaining” value [1] was 33%.

In the case of O=C(O)c1cc(/C=C/c2ccccc2-c2ccnc(Nc3ccc(C(F)(F)F)cc3)n2)ccc1O [Example 59, (E)-2-hydroxy-5-(2-(2-((4-(trifluoromethyl)phenyl)amino)pyrimidin-4-yl)styryl)benzoic acid, reference compound], the “% of parent remaining” value [1] is reported as 94%, the EC50 (AhR; 18-24 h, EC50 = concentration to reach half of maximum efficacy of reference compound VAF347) is reported as 1.42 µM and the Emax (AhR; % efficacy = 100%*(TA-BG)/(Ref-BG), Ref = VAF347, read-out: HT29 AhR % efficacy) is reported as 74%.

For COc1ccc(/N=N/c2ccccc2-c2ccnc(Nc3ccc(C(F)(F)F)cc3)n2)cc1C(=O)O [Example 43, (E)-2-methoxy-5-((2-(2-((4-(trifluoromethyl)phenyl)amino)pyrimidin-4-yl)phenyl)diazenyl)benzoic acid], the “% of parent remaining” value [1] was 74%.

With O=C(O)c1cc(O)ccc1/N=N/c1ccccc1-c1ccnc(Nc2ccc(C(F)(F)F)cc2)n1 [Example 38, (E)-5-hydroxy-2-((2-(2-((4-(trifluoromethyl)phenyl)amino)pyrimidin-4-yl)phenyl)diazenyl)benzoic acid] the “% of parent remaining” value [1] was 4%.

In the case of O=C(O)c1ccc(O)c(/N=N/c2ccccc2-c2ccnc(Nc3ccc(C(F)(F)F)cc3)n2)c1 [Example 36, (E)-4-Hydroxy-3-((2-(2-((4-(trifluoromethyl)phenyl)amino)pyrimidin-4-yl)phenyl)diazenyl)benzoic acid], the “% of parent remaining” value [1] is reported as 19%.
